These results are taken from ChEMBL document CHEMBL2163217, “A straightforward approach for engineering efficacy and selectivity at GPCRs” (J Med Chem, 2012).

SMILES strings stand for the structures. Activity calls are given as the source filed them. The rule behind the calls is not given here.

Common to all, as to format: functional
The target of experiment [1] is D(3) dopamine receptor (Homo sapiens) (UniProt P35462). The experiment in a line: Partial agonist activity at D3 receptor relative to control.
The target is the same in experiment [2]. The experiment in a line: Partial agonist activity at D3 receptor.
For experiment [3], the target named is D(2) dopamine receptor (Homo sapiens) (UniProt P14416). The experiment in a line: Partial agonist activity at D2 receptor relative to control.
The target is the same in experiment [4]. Put plainly: Partial agonist activity at D2 receptor.

Chain of D(2) dopamine receptor (Homo sapiens) (P14416 whole entry): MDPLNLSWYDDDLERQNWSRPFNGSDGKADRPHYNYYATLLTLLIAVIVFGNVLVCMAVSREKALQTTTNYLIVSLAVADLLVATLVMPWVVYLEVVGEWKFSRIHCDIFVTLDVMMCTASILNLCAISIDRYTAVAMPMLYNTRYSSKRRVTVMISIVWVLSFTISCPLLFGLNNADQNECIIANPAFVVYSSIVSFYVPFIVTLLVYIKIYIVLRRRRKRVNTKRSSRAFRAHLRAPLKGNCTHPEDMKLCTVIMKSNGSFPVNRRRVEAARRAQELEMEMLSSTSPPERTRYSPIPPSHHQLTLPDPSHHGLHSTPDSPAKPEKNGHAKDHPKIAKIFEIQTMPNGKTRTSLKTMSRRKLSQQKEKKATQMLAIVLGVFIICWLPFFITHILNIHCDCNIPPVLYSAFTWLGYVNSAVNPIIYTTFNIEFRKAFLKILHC
Chain of D(3) dopamine receptor (Homo sapiens) (P35462 whole entry): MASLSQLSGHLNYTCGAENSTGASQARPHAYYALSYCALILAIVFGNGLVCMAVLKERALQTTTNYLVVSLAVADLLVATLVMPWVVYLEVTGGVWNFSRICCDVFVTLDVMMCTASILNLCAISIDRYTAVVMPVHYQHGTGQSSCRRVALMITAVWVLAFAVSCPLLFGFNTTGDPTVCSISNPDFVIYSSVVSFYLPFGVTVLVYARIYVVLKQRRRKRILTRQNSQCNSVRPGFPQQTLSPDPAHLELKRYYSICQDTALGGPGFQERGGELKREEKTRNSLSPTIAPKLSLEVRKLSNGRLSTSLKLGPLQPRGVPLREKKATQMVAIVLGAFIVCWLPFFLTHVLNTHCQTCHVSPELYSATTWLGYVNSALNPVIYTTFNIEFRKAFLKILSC

Take `COc1ccccc1N1CCN(CCCCNC(=O)c2cc3ccccc3[nH]2)CC1`: the maximal effect (Emax) in experiment [1] and in experiment [3] was 8% in each case. For the same molecule, the result in experiment [2] and in experiment [4] was Active.

For the molecule `Clc1cccc(N2CCNCC2)c1Cl`, the figures for the Emax in experiment [1] and in experiment [3] were 57.3% and 40.4%, respectively.

Turning to `O=C(NCCCCN1CCN(c2cccc(Cl)c2Cl)CC1)c1cc2ccccc2[nH]1`, the outcome in experiment [2] was Active.

In turn, `COc1ccccc1N1CCNCC1` registered an Emax in experiment [3] of 14%.
